Values of other authors as cited in patent US11786452B2, “Method for dyeing keratinous material” (Henkel AG & Co. KGaA, priority 2019, dated 2023).

Conditions: 25° C.

solubility in water | SMILES
2500 µg/mL | Nc1cc(S(=O)(=O)[O-])cc2cc(S(=O)(=O)[O-])c(N=Nc3ccccc3)c(O)c12.[Na+].[Na+] [Acid Red 33, diantrium salt of 5-amino-4-hydroxy-3-(phenylazo)-naphthalene-2,7-disulphonate]
highly soluble | O=C([O-])C1=NN(c2ccc(S(=O)(=O)[O-])cc2)C(=O)C1N=Nc1ccc(S(=O)(=O)[O-])cc1.[Na+].[Na+].[Na+] (centres unmarked) [Acid Yellow 23, trisodium salt of 4,5-dihydro-5-oxo-1-(4-sulfophenyl)-4-((4-sulfophenyl)azo)-1H-pyrazole-3-carboxylic acid]
more than 20 % by weight | CCN(Cc1cccc(S(=O)(=O)[O-])c1)c1ccc(C(=C2C=CC(=[N+](CC)Cc3cccc(S(=O)(=O)[O-])c3)C=C2)c2ccccc2S(=O)(=O)[O-])cc1.[Na+].[Na+] [Acid Blue 9]

SMILES | solubility in water
O=C([O-])c1c(Cl)c(Cl)c(Cl)c(Cl)c1-c1c2c(Br)cc(=O)c(Br)c-2oc2c(Br)c(O)cc(Br)c12.O=C([O-])c1c(Cl)c(Cl)c(Cl)c(Cl)c1-c1c2c(Br)cc(=O)c(Br)c-2oc2c(Br)c(O)cc(Br)c12.[Na+].[Na+] [Acid Red 92, disodium salt of 3,4,5,6-tetrachloro-2-(1,4,5,8-tetrabromo-6-hydroxy-3-oxoxanthen-9-yl)benzoic acid] | greater than 10 g/L
O=S(=O)([O-])c1ccc(N=Nc2c(O)ccc3ccccc23)cc1.[Na+] [Acid Orange 7, sodium salt of 4-[(2-hydroxy-1-naphthyl)azo]benzene sulphonate] | more than 7 g/L
